# Data: patent US20090324742A1, “Peham dendrimers as excipients” (priority 2006, published 2009)
# How the values were obtained:
# [1] = Solubility enhancement of vitamin D3 by PEHAM dendritic polymers (HPLC); assay type: physicochemical; conditions: pure Active Material control without dendrimer; detection limit
# Procedure: An excess of the cosmetic and nutrient Active Material, vitamin D3, (Sigma) was added to vials containing PEHAM dendritic polymers G=1.0 and G=2.0 with PETGE or TMPTGE cores and amine surfaces, partially PEGylated (25% PEG-550) amine surfaces, or carboxylate surfaces, dissolved in 20% (v/v) aqueous methanol at 1 wt % concentrations. These suspensions were briefly ultrasonicated in a water bath at RT, then incubated overnight at 32° C. and 100 rpm in a shaking water bath, and allowed to equilibrate at RT. The suspensions were filtered through a 0.2-μm Nylon syringe filter to remove not encapsulated Active Material. Solvent was removed and the residue redispersed in DI water. The samples were analyzed for dendrimer-associated vitamin D3 by HPLC. Association results are expressed in ng Active Material per mL solution. […] The pure Active Material as control remains below detection limit of 50 ng/mL.
# [2] = Aqueous solubility of paclitaxel with PEHAM dendritic polymer (HPLC); assay type: physicochemical; conditions: DI water without dendrimer, thermodynamic from solid
# Procedure: The sample was subjected to brief ultrasonication and heating at 50° C. for 10 mins., followed by overnight shaking at RT. The sample was then centrifuged for 5 mins. and the paclitaxel content measured by HPLC.
SMILES,vitamin D3 solubility [1] [µg/mL],solubility [2] [µg/mL]
C=C1CC[C@H](O)C/C1=C/C=C1\CCC[C@]2(C)[C@@H]([C@H](C)CCCC(C)C)CC[C@@H]12 [vitamin D3],< 0.05,–
CC(=O)O[C@H]1C(=O)[C@@]2(C)[C@H]([C@H](OC(=O)c3ccccc3)[C@]3(O)C[C@H](OC(=O)[C@H](O)[C@@H](NC(=O)c4ccccc4)c4ccccc4)C(C)=C1C3(C)C)[C@]1(OC(C)=O)CO[C@@H]1C[C@@H]2O [paclitaxel],–,0.3
